These are literature values, as cited in PubChem BioAssay AID1259409 (Chemical Carcinogenesis Research Information System (CCRIS), 2018).

The test system of the series is rodent chemically induced tumor inhibition, incidence and multiplicity. Kind of series: CCRIS tumor inhibitor studies. The settings on record: Route [Inhibitor]: ORAL, Promoter: NONE USED.

As to `CC1=C(/C=C/C(C)=C/C=C/C(C)=C/C(=O)NCC(C)O)C(C)(C)CCC1` (stereo not given), the “tumour outcome (control, treated, inhibition, significance)” value is 31/55 (56%), 20/55 (36%), 36%, p<0.05 (Carcinogen: N-BUTYL-N-(4-HYDROXYBUTYL)NITROSAMINE, 3817-11-6, Dose [Inhibitor]: 1.5 MMOL/KG DIET DAILY FOR 108 D STARTING ONE WK AFTER THE FINAL CARCINOGEN DOSE (STUDY DURATION: 171 D), Species: MOUSE, Strain/Sex: BDF/MALE, Target Tissue: Type of Lesion: URINARY BLADDER: TRANSITIONAL CELL CARCINOMA, Dose [Carcinogen]: 5 MG, 2/WK FOR 9 WK); 31/55 (56%), 20/55 (36%), 36%, p<0.05 (Carcinogen: N-BUTYL-N-(4-HYDROXYBUTYL)NITROSAMINE, 3817-11-6, Dose [Inhibitor]: 1.5 MMOL/KG/D IN DIET FOR 108 D STARTING 1 WK POST CARCINOGEN TREATMENT (STUDY DURATION: 171 D), Species: MOUSE, Strain/Sex: BDF/MALE, Target Tissue: Type of Lesion: URINARY BLADDER: TRANSITIONAL CELL CARCINOMA, Dose [Carcinogen]: 5 MG 2/WK FOR 9 WK); 5%, 19%, -280%, not calculated (Carcinogen: N-NITROSOBIS(2-OXOPROPYL)AMINE, 60599-38-4, Dose [Inhibitor]: 0.25 MMOL/KG OF DIET FOR 364 D STARTING 2 WK AFTER LAST CARCINOGEN DOSE (STUDY DURATION: 55 WK), Species: HAMSTER, Strain/Sex: SYRIAN/FEMALE, Target Tissue: Type of Lesion: LIVER: CARCINOMA, Dose [Carcinogen]: 20 MG/KG INJECTION GIVEN TWICE 1 WK APART); 38%, 15%, 61%, not calculated (Carcinogen: N-NITROSOBIS(2-OXOPROPYL)AMINE, 60599-38-4, Dose [Inhibitor]: 0.25 MMOL/KG OF DIET FOR 364 D STARTING 2 WK AFTER LAST CARCINOGEN DOSE (STUDY DURATION: 55 WK), Species: HAMSTER, Strain/Sex: SYRIAN/FEMALE, Target Tissue: Type of Lesion: PANCREAS: CARCINOMA, Dose [Carcinogen]: 20 MG/KG INJECTION GIVEN TWICE 1 WK APART); 7%, 32%, -357%, not calculated (Carcinogen: N-NITROSOBIS(2-OXOPROPYL)AMINE, 60599-38-4, Dose [Inhibitor]: 0.25 MMOL/KG OF DIET FOR 364 D STARTING 2 WK AFTER LAST CARCINOGEN DOSE (STUDY DURATION: 55 WK), Species: HAMSTER, Strain/Sex: SYRIAN/MALE, Target Tissue: Type of Lesion: LIVER: CARCINOMA, Dose [Carcinogen]: 20 MG/KG INJECTION GIVEN TWICE 1 WK APART); 34%, 24%, 29%, not calculated (Carcinogen: N-NITROSOBIS(2-OXOPROPYL)AMINE, 60599-38-4, Dose [Inhibitor]: 0.25 MMOL/KG OF DIET FOR 364 D STARTING 2 WK AFTER LAST CARCINOGEN DOSE (STUDY DURATION: 55 WK), Species: HAMSTER, Strain/Sex: SYRIAN/MALE, Target Tissue: Type of Lesion: PANCREAS: CARCINOMA, Dose [Carcinogen]: 20 MG/KG INJECTION GIVEN TWICE 1 WK APART). Further, the “tumour outcome (control, treated, inhibition, significance)” value reads like this: (Carcinogen: N-NITROSOBIS(2-OXOPROPYL)AMINE, 60599-38-4, Dose [Inhibitor]: 0.5 MMOL/KG DIET FOR 357 D STARTING 2 WK AFTER LAST CARCINOGEN DOSE AND INTERRUPTED BY A 1 WK REST PERIOD OF VEHICLE ONL, Species: HAMSTER, Strain/Sex: SYRIAN/FEMALE, Target Tissue: Type of Lesion: LIVER: HEPATOCELLULAR CARCINOMA, Dose [Carcinogen]: 20 MG/KG INJECTION GIVEN TWICE 1 WK APART) 5%, 12%, -140%, not calculated; (Carcinogen: N-NITROSOBIS(2-OXOPROPYL)AMINE, 60599-38-4, Dose [Inhibitor]: 0.5 MMOL/KG DIET FOR 357 D STARTING 2 WK AFTER LAST CARCINOGEN DOSE AND INTERRUPTED BY A 1 WK REST PERIOD OF VEHICLE ONL, Species: HAMSTER, Strain/Sex: SYRIAN/FEMALE, Target Tissue: Type of Lesion: PANCREAS: CARCINOMA, Dose [Carcinogen]: 20 MG/KG INJECTION GIVEN TWICE 1 WK APART) 38%, 25%, 34%, not calculated; (Carcinogen: N-NITROSOBIS(2-OXOPROPYL)AMINE, 60599-38-4, Dose [Inhibitor]: 0.5 MMOL/KG DIET FOR 357 D STARTING 2 WK AFTER LAST CARCINOGEN DOSE AND INTERRUPTED BY A 1 WK REST PERIOD OF VEHICLE ONL, Species: HAMSTER, Strain/Sex: SYRIAN/MALE, Target Tissue: Type of Lesion: LIVER: HEPATOCELLULAR CARCINOMA, Dose [Carcinogen]: 20 MG/KG INJECTION GIVEN TWICE 1 WK APART) 7%, 12%, -71%, not calculated; (Carcinogen: N-NITROSOBIS(2-OXOPROPYL)AMINE, 60599-38-4, Dose [Inhibitor]: 0.5 MMOL/KG DIET FOR 357 D STARTING 2 WK AFTER LAST CARCINOGEN DOSE AND INTERRUPTED BY A 1 WK REST PERIOD OF VEHICLE ONL, Species: HAMSTER, Strain/Sex: SYRIAN/MALE, Target Tissue: Type of Lesion: PANCREAS: CARCINOMA, Dose [Carcinogen]: 20 MG/KG INJECTION GIVEN TWICE 1 WK APART) 34%, 29%, 15%, not calculated.
